Results published in article PMC12510174 (International Journal of Biological Sciences, 2025).

How the values were obtained:
[1] = test system: WERI-Rb1 orthotopic RB model; details: mouse, in vivo
[2] = test system: WERI-Rb1 orthotopic RB model; details: mouse, in vivo; remark: listed apart in the source
[3] = test system: WERI-Rb1 orthotopic RB model; details: mouse, in vivo; remark: listed apart in the source
[4] = test system: WERI-Rb1 orthotopic RB model; details: mouse, in vivo; remark: listed apart in the source
[5] = mouse, in vivo
retinoblastoma = details: human, in vivo; cited from earlier work

Row | SMILES | FITC-labeled Pri-MP uptake (Endocytosis species) alone or with added inhibitor (WERI-Rb1) | FITC-labeled Pri-MP uptake (Endocytosis species) alone or with added inhibitor (Y79) | reduction of Pri-MP uptake relative to vehicle controls (RB cells) | other results
1 | N[C@@H](Cc1ccc(N(CCCl)CCCl)cc1)C(=O)O [Melphalan] |  |  |  | reduction of tumor burden (tumor area) [1]: 82.6%; TUNEL positivity relative to the Control group [2]: 1.77 fold; decrease of Ki-67 expression relative to the control [3]: about 30.3%; increase of p53 expression relative to the Control group [4]: 71%; alanine aminotransferase and aspartate aminotransferase levels [5]: did not significantly deviate from the Control group; body weight during treatment [5]: no significant difference; overall globe salvage rate (retinoblastoma): 66.4%
2 | N=C(N)NC(=O)c1nc(Cl)c(N)nc1N [amiloride] | 22.9% | 29.8% |  | inhibitory effect on Pri-MP uptake (WERI-Rb1): 73.0%; inhibitory effect on Pri-MP uptake (Y79): 64.5%
3 | CN(C)CCCN1c2ccccc2Sc2ccc(Cl)cc21 [chlorpromazine] | 87.0% | 87.6% | < 10% | 
4 | C=C1[C@@H](C)[C@H]2[C@H](Cc3ccccc3)NC(=O)[C@]23[C@H](OC(C)=O)/C=C/[C@@](C)(O)C(=O)[C@@H](C)C/C=C/[C@H]3[C@@H]1O [cytochalasin D] | 38.4% | 22.3% |  | inhibitory effect on Pri-MP uptake (WERI-Rb1): 55.4%; inhibitory effect on Pri-MP uptake (Y79): 72.4%
5 | O=C(N/N=C/c1ccc(O)c(O)c1)c1cc2ccccc2cc1O [dynasore] | 70.1% | 73.8% | < 10% | 
6 | CCCCC[C@@H](O)[C@H]1C(=O)O[C@H](C)[C@@H](O)/C=C/C=C/C=C/C=C/C=C(\C)[C@@H](O)C[C@H](O)C[C@H](O)C[C@H](O)C[C@H](O)C[C@H](O)C[C@@H]1O [filipin] | 84.8% | 78.6% | < 10% | 
7 | O=c1c(-c2ccc(O)cc2)coc2cc(O)cc(O)c12 [genistein] | 87.0% | 85.2% |  | 
